Measured values published in US20210015772A1, “PHARMACEUTICAL COMPOSITION FOR PREVENTION OR TREATMENT OF FIBROSIS” (CRYSTALGENOMICS, INC., priority 2018, published 2021).

Legend:
Assay type in all cases: in vivo, C57BL/6 mice
collagen [1] = experiment: Sircol assay of bronchoalveolar lavage fluid in polyhexamethylene guanidine-induced pulmonary fibrosis mouse model; conditions: 15, 30, 60 mg/kg intraperitoneally for 2 weeks after 1 mg/kg polyhexamethylene guanidine into the airway
Procedure: (§1) As a polyhexamethylene guanidine (PHMG) model, 7-week old female C57BL/6 mice were used, and the mice were divided into a total of 5 groups, a polyhexamethylene guanidine-administered group, CG200745-administered groups in which CG200745 is administered at 15, 30, 60 mg/kg after administration of polyhexamethylene guanidine, and a control group to perform the experiment. Airway incision was performed on the mice and 1 mg/kg polyhexamethylene guanidine was injected into the airway in a volume of 50 μl. After injection, the incision site was closed with 5-0 nylon. After the injection of polyhexamethylene guanidine, the drug was administered intraperitoneally for a total of 2 weeks.
After two weeks of drug administration, the skin of the airway of the mouse was incised to expose the airway and washed with 800 μl of PBS into the trachea and then 500 μl of the solution was recovered therefrom to obtain bronchoalveolar lavage fluid. The bronchoalveolar lavage fluid was centrifuged at 4° C. and 1,200 rpm for 5 minutes to obtain supernatant. 50 μl of the bronchoalveolar lavage fluid and 1 ml of sircol dye reagent were mixed for 30 minutes. […] After discarding the supernatant, 1 ml of Alkali reagent was added and absorbance was measured at 555 nm.

collagen [2] = experiment: Sircol assay of bronchoalveolar lavage fluid in bleomycin-induced mouse model; conditions: 15, 30, 60 mg/kg intraperitoneally for 2 weeks after 2 mg/kg bleomycin into the airway
Procedure: as §1, with “a bleomycin” for “a polyhexamethylene guanidine (PHMG)”, “a bleomycin-administered” for “a polyhexamethylene guanidine-administered”, “of bleomycin,” for “of polyhexamethylene guanidine,”, “and 2” for “and 1”, “mg/kg bleomycin” for “mg/kg polyhexamethylene guanidine”
After two weeks of drug administration, the skin of the airway of the mouse was incised to expose the airway and washed with 800 μl of PBS into the trachea and then 500 μl of the solution was recovered therefrom to obtain bronchoalveolar lavage fluid. The bronchoalveolar lavage fluid was centrifuged at 4° C. and 1,200 rpm for 5 minutes to obtain supernatant. 50 μl of the bronchoalveolar lavage fluid and 1 ml of sircol dye reagent were mixed for 30 minutes. After centrifugation at 4° C. and 12,000 rpm for 10 minutes, the supernatant was discarded, 750 μl of Acid-salt wash reagent was added for washing, and then centrifugation was performed at 12,000 rpm for 10 minutes. After discarding the supernatant, 1 ml of Alkali reagent was added and absorbance was measured at 555 nm.

[3] = test system: α-SMA, Collagen I, PAI-1, Acetylated H3; experiment: Western blot of fibrosis markers and Acetylated H3 in lung tissue of polyhexamethylene guanidine-induced pulmonary fibrosis mouse model; conditions: PHMG model, 15, 30, 60 mg/kg intraperitoneally for 2 weeks, western blot densitometry
Procedure: as §1
(§2) Western blot was performed to identify makers of pulmonary fibrosis (α-SMA, collagen I, PAI-1, E-cadherin, N-cadherin) and Acetylated H3 in tissues. The mice were sacrificed, and then subjected to chest opening and the lungs were removed and stored frozen for a day, and the mouse tissues were ground to prepare a protein sample. It was subjected to SDS-PAGE and the fractionated protein sample was transferred to PVDF (polyvinylidene difluoride) membrane. […]
(§3) With the average for two controls being 1, the relative value was recorded to conduct densitometry analysis.

[4] = test system: bleomycin-induced pulmonary fibrosis; experiment: Histopathological analysis of lung (H&E, Masson's trichrome) in bleomycin-induced mouse model; conditions: 15, 30, 60 mg/kg intraperitoneally for 2 weeks after 2 mg/kg bleomycin into the airway
Procedure: (§4) As a bleomycin model, 7-week old female C57BL/6 mice were used, and the mice were divided into a total of 5 groups, a bleomycin-administered group, CG200745-administered groups in which CG200745 is administered at 15, 30, 60 mg/kg after administration of bleomycin, and a control group to perform the experiment. Airway incision was performed on the mice and 2 mg/kg bleomycin was injected into the airway in a volume of 50 μl. After injection, the incision site was closed with 5-0 nylon. After the injection of bleomycin, the drug was administered intraperitoneally for a total of 2 weeks. The mice were sacrificed and subjected to chest opening and then the lungs were removed and fixed with 4% paraformaldehyde. They were fixed by immersing in 4% paraformaldehyde for 48 hours at 4° C., and then a paraffin block was prepared. 4 μm of microsection was made from the paraffin-embedded tissue and attached to a slide. Hemotoxin and eosin staining and Masson's trichrome staining were performed. For hemotoxin and eosin staining, the slide was immersed in xylene twice for 5 minutes each and in 100%, 95% and 70% ethanol for 2 minutes each, and washed with running distilled water. After washing, the slide was immersed in hematoxylin for 1 minute, washed several times with running distilled water, then immersed in eosin for 30 seconds and washed several times with running distilled water. […]

[5] = test system: polyhexamethylene guanidine-induced pulmonary fibrosis; experiment: Histopathological analysis of lung (H&E, Masson's trichrome) in polyhexamethylene guanidine-induced pulmonary fibrosis mouse model; conditions: 15, 30, 60 mg/kg intraperitoneally for 2 weeks after 1 mg/kg polyhexamethylene guanidine into the airway
Procedure: as §4, with “a polyhexamethylene guanidine (PHMG)” for “a bleomycin”, “a polyhexamethylene guanidine-administered” for “a bleomycin-administered”, “of polyhexamethylene guanidine,” for “of bleomycin,”, “and 1” for “and 2”, “mg/kg polyhexamethylene guanidine” for “mg/kg bleomycin”, “water.” for “water. After washing, the slide was immersed in hematoxylin for 1 minute, washed several times with running distilled water, then immersed in eosin for 30 seconds and washed several times with running distilled water.”

[6] = test system: kidney with acute renal failure induced after ureteral obstruction (renal fibrosis); experiment: Histopathology analysis (hematoxylin and eosin) of kidney in unilateral ureteral obstruction (renal failure) mouse model; conditions: 30 mg/kg/day intake in distilled water, day 7 after ureteral obstruction, compared to the solvent control group
Procedure: 8-week old female C57BL/6 mice were used. After opening the abdomen of C57BL/6 mice, one of two ureters was closed with 6-0 cotton yarn. After closing the ureter, the abdomen was sutured and disinfected. Immediately after surgery, the host mice were classified into the solvent control group which is the non-intake group, and the CG200745 intake group in which CG200745 dissolved in distilled water was consumed (30 mg/kg/day). On the 7th day after surgery, the solvent control group and the CG200745 intake group mice were euthanized, and then normal kidney and the kidney with acute renal failure induced after ureteral obstruction were extracted. The extracted normal kidney and kidney with acute renal failure induced were fixed with 4% paraformaldehyde, and then covered with paraffin to prepare a tissue section with a 3 μm thickness. Hematoxylin and eosin staining was conducted on the completed tissue sections to perform a histopathological analysis of renal tissues. For hematoxylin staining, kidney tissue sections were stained with Gill's hematoxylin for 5 minutes, washed with tap water, and then treated with 95% ethanol. Eosin staining was performed by staining with eosin and phloxine for 1 minute. The tissue sections were then dehydrated with ethanol and xylene and fixed with Canada balsam.

[7] = test system: α-SMA, Collagen I, PAI-1, Acetylated H3; experiment: Western blot of fibrosis markers and Acetylated H3 in lung tissue of bleomycin-induced mouse model; conditions: 15, 30, 60 mg/kg intraperitoneally for 2 weeks, western blot densitometry
Procedure: as §1, with “a bleomycin” for “a polyhexamethylene guanidine (PHMG)”, “a bleomycin-administered” for “a polyhexamethylene guanidine-administered”, “of bleomycin,” for “of polyhexamethylene guanidine,”, “and 2” for “and 1”, “mg/kg bleomycin” for “mg/kg polyhexamethylene guanidine”
as §2, §3

[8] = test system: α-SMA (alpha-smooth muscle actin); experiment: Expression level of fibrosis marker α-SMA by real-time PCR in kidney of unilateral ureteral obstruction mouse model; conditions: 30 mg/kg intake, kidney with renal failure induced through ureteral obstruction, compared to the solvent control group
Procedure: 8-week old female C57BL/6 mice were used. After opening the abdomen of C57BL/6 mice, one of two ureters was closed with 6-0 cotton yarn. After closing the ureter, the abdomen was sutured and disinfected. Immediately after surgery, the host mice were classified into the solvent control group which is the non-intake group, and the CG200745 intake group in which CG200745 dissolved in distilled water was consumed (30 mg/kg/day). On the 7th day after surgery, the solvent control group and the CG200745 intake group mice were euthanized, and then normal kidney and the kidney with acute renal failure induced after ureteral obstruction were extracted. […]
The kidney cortex was homogenized with Trizol solution (Invitrogen, Carlsbad, Calif.). […] The washed RNA was dissolved in distilled water and then the concentration was determined by measuring absorbance at 260 nm (Ultraspec 2000; Pharmacia Biotech, Cambridge, UK). cDNA was produced by reverse transcription of […] RNA using oligo(dT) primer and superscript reverse transcriptase II (Invitrogen, Carlsbad, Calif.). The produced cDNA was quantified by measuring with SYBR Green using Smart Cycler II System (Cepheid, Sunnyvale, Calif.). […]

`CN(C)CCCNC(=O)/C(=C/CCCCC(=O)NO)COc1cccc2ccccc12` [CG200745, (E)-N1-(3-(dimethylamino)propyl)-N8-hydroxy-2-((naphthalene-1-yloxy)methyl)oct-2-enediamide] was tested, and the “collagen in bronchoalveolar lavage fluid increased by polyhexamethylene guanidine (sircol assay)” value (collagen [1]) was “significantly decreased in CG200745 concentration-dependent manner”, the “collagen in bronchoalveolar lavage fluid increased by bleomycin treatment (sircol assay)” value (collagen [2]) was “significantly decreased in CG200745 concentration-dependent manner” and the “expression levels of fibrosis markers (α-SMA, Collagen I, PAI-1) increased by polyhexamethylene guanidine treatment” value ([3]; lung tissue) was “reduced in CG200745 concentration-dependent manner”. For the same molecule, the “level of histone acetylation (Acetylated H3) in lung tissue” value [3] was “increased”, the “degree of fibrosis and collagen accumulation increased by bleomycin treatment (lung histopathology)” value [4] was “significantly decreased in CG200745 concentration-dependent manner and normalized” and the “polyhexamethylene guanidine-induced pulmonary fibrosis (lung histopathology)” value [5] was “suppressed in CG200745 concentration-dependent manner and normalized”. The “fibrosis progression in the kidney (histopathology)” value [6] was “inhibited”, the “expression levels of fibrosis markers (α-SMA, Collagen I, PAI-1) increased by bleomycin treatment” value ([7]; lung tissue) was “reduced in CG200745 concentration-dependent manner” and the “level of histone acetylation (Acetylated H3) in lung tissue” value [7] was “increased”. The “reduction of α-SMA expression (real-time PCR)” value [8] was at least 50%.
